Data set [1] is described as follows: Example 2 case: obese person, bupropion then zonisamide added. It is filed as in vivo, human. As to the method:
At this point, zonisamide was added to the regimen at 100 mg/day and the dose was increased after 2 weeks to 200 mg/day. […] No further information is available as the patient has relocated.

Data set [2] in a line: 16-week randomized, double blind acute phase, zonisamide vs placebo in obese subjects. It is filed as in vivo, human. An excerpt: Sixty-eight subjects were screened for participation and 60 subjects were randomized.
Inclusion criteria were: male or female, aged 21-50 years, with body mass index (BMI) of ≧30 kg/m^2.
(§1) The study had two phases. The first was the acute phase—a 16-week, randomized, double blind, parallel-group comparison of zonisamide (ZON) and placebo (PBO). This was followed by an optional 16-week extension phase. At the end of the acute phase, subjects wishing to continue further received the same treatment for an additional 16 weeks in a single-blinded fashion.
The subjects were randomized in a 1:1 ratio to receive zonisamide or placebo capsules. Study medication was dispensed under blinded conditions through computer-based randomization. The randomization was generated using a random number table with a block size of ten. There was no stratification by gender or other demographics. The study investigators were blind to the “blocking” method used by the pharmacy. The treatment assignment codes were not available to the investigators until all subjects completed the acute phase, the data were entered, and the database for this phase was locked, meaning that no further changes could be made to the data.
The study medication was dispensed in the form of capsules. Each capsule contained either 100 milligrams zonisamide or placebo. The capsules were made to look identical. The dose escalation was as follows: one capsule (zonisamide 100 mg or placebo) every evening for the first 2 weeks; two capsules (zonisamide 200 mg or placebo) every evening during Weeks 3 and 4; three capsules (zonisamide 300 mg or placebo) every evening during Weeks 5 and 6; and, four capsules (zonisamide 400 mg or placebo) every evening from Week 7 onward. At Week 12, the dose could be increased further to six capsules (zonisamide 600 mg or placebo) every evening for subjects who had not lost at least 5% of their initial body weight. If a subject preferred not to take all six capsules at one time, taking a half of the daily dose in the morning was an option. Based on tolerability, dose escalation could be withheld, or the dose might also be decreased. Medication compliance was overseen by recording the number of tablets returned and comparing this number to the number of capsules dispensed at each visit.
Subjects in both treatment groups were instructed to follow an individual diet that was 500 Kcal/day less than what they needed to maintain their weight. The prescribed diet, based on eating a variety of foods from the Food Guide Pyramid, emphasized decreasing portions, eating more fruits and vegetables, and drinking 8 cups of water each day. Increased physical activity was also encouraged for subjects in both groups. Subjects were asked to record their dietary intake including portion sizes in food diaries, which were provided to them. A registered dietician reviewed food diaries and provided counseling to all subjects. Subjects were encouraged to make healthy changes in their diets and physical activity that could be maintained after the completion of the study.
(§2) During each visit, the following assessments were performed: blood pressure, heart rate, weight, dietary compliance, medication accountability and tolerability, and adverse effects. Body weight was measured on a calibrated electronic scale to the nearest 0.1 kilogram. A registered dietitian reviewed food diaries and assessed dietary compliance. Adverse effects were gathered via spontaneous reporting by subjects as well as open-ended inquiries by the clinicians.
In addition to the above, the subjects completed the Impact of Weight on Quality of Life (IWQOL) (Kolotin et al, Obesity Res. 3:49-56 (1995)) at baseline, Week 8, and Week 16. The IWQOL is a self-report measure with 74 items that assess the perceived effect of weight on quality of life in the following domains (subscales)—health, social/interpersonal life, work, mobility, self-esteem, sexual life, activities of daily living, and eating (comfort with food). […]

Data set [3] is described as follows: optional 16-week single-blinded extension phase (to Week 32), zonisamide vs placebo in obese subjects. It is filed as in vivo, human. Conditions: for mean weight loss at Week 32: placebo 1.82% (0.73%). The method, then:
as §1, §2
In addition to the above, the subjects completed the Impact of Weight on Quality of Life (IWQOL) (Kolotin et al, Obesity Res. 3:49-56 (1995)) at baseline, Week 8, and Week 16. The IWQOL is a self-report measure with 74 items that assess the perceived effect of weight on quality of life in the following domains (subscales)—health, social/interpersonal life, work, mobility, self-esteem, sexual life, activities of daily living, and eating (comfort with food). Improvement with treatment is reflected by decreasing scores on all the subscales with the exception of the eating (comfort with food) subscale, which is expected to show less comfort around food with effective treatment. Body composition (fat and lean masses) and bone mineral density (BMD) were determined, at baseline and Week 32, by dual x-ray absorptiometry (DXA; Hologic 2000, Waltham, Mass.). All DXA measurements were gathered using the same equipment and techniques. Subjects were instructed to fast for 8 hours and not to drink water or other beverages for at least 4 hours prior to DXA measurement.
Weight change during the study was assessed in terms of actual weight change over the six study intervals using multivariable regression methodology, and as a dichotomous outcome of ‘response,’ i.e., 5% weight loss at Week 16, and 5% and 10% weight loss at Week 32. The proxy variables denoting response status were tested across treatment conditions again using Fisher's exact test. Three multivariable regression analyses were conducted. In the first, body weight at each time point was modeled using a random effects growth curve model. Heuristically, the model fits a regression line for each subject using available data points, thus maximizing use of actual data. For the second set of analyses, body weights were regressed as above with missing observations carried forward from the last recorded weight based on an intent-to-treat approach (LOCF). The final model was restricted to the subset of respondents with no missing data (completers).
Secondary analyses were conducted over three general areas of interest. In each case, analyses were based on 2×2 repeated measures ANOVAs that included time, drug condition, and their interaction (time-by-drug). The primary interest in each instance was to determine if subjects in the zonisamide condition were differentially affected relative to controls as operationally determined by testing the significance of the estimated interaction term. Tests in first area of interest focused on clinical indicators including levels of creatinine, glucose, triglycerides, high and low density lipoproteins (all assessed at baseline and study conclusion), waist measurements (baseline, Week 8 and Week 16), blood pressure (systolic and diastolic), and heart rate. The second general area of sampled quality of life indicators including activities of daily living, appetite, esteem, health, interpersonal relations, mobility, sex, and work using the IWQOL Scale; repeated measurements were taken at baseline, Week 8, and Week 16). The final set of secondary analyses sampled hunger and appetite using the Visual Analogue Scale for Hunger and Food Cravings. […]

The nature of data set [4]: Example 3 case: obese person, zonisamide then bupropion SR added. It is filed as in vivo, human. As to the method:
An obese person (weight 246 lb, BMI 41.4 kg/m^2) who had not benefited from various treatments, was started on zonisamide 100 mg/day and the dose was increased gradually to 400 mg a day over the next 4 weeks. […] At this point, zonisamide dose was increased to 600 mg a day; the patient achieved an additional weight loss of 0.6 lb in the next month. Thus, after 3 months of zonisamide therapy, the total weight loss with zonisamide therapy was 5.2 lb. […] They reported that they felt “full” after eating small portions of food, and had more energy.

Data set [5] can be described thus: Example 4 case: obese person, zonisamide then bupropion added. The class given is in vivo, human. As to the method: An obese person received zonisamide in a clinical trial and achieved weight loss of 35.6 lb over 32 weeks. During the 5 weeks following discontinuation of zonisamide, they gained 7.7 lb. Zonisamide was restarted, but this intervention was unsuccessful in offsetting the regained weight; after 16 weeks of therapy at doses up to 400 mg/d, the patient gained 1.2 lb.

A short description of data set [6]: optional 16-week single-blinded extension phase (to Week 32), zonisamide vs placebo in obese subjects. It is filed as in vivo, human. Conditions: Week 32, versus placebo; p<0.0030, p<0.0651, p<0.0019, P<0.0005.
For data set [7] the following is noted: epileptic patients taking other concomitant AEDs; small percent of patients; cited from earlier work.

The structures appear in SMILES notation.

Regarding `CC(NC(C)(C)C)C(=O)c1cccc(Cl)c1` (centres unmarked) [bupropion], the net weight loss in data set [1] (after 2 months on bupropion) was 1.6 lbs. In data set [1] (after one month, bupropion 150 mg twice a day, start weight 271 lb), the weight lost was found to be 5 lbs. Also, the weight regained in data set [1] (during the second month on bupropion) was determined as 3.4 lbs.

As for `NS(=O)(=O)Cc1noc2ccccc12` [zonisamide], the “heart rate change versus placebo” value in data set [2] (16 weeks, overall sample decreased approximately 2 beats/min) is “no difference between the groups”. Further, in data set [2] (ITT-LOCF, baseline 98.17 (2.5) kg, placebo 97.75 to 96.86 kg), the “absolute weight at Week 16” value is recorded as 92.28 (2.47) kg. For the same compound, the “subjects achieving >=10% weight loss at Week 16” value in data set [2] (ITT-LOCF, placebo 0/30, p<0.0053) is reported as 7/30. In addition, the “subjects achieving >=5% weight loss at Week 16 (number)” value in data set [2] (ITT-LOCF, placebo 3 of 30, p<0.0003) was 17 of 30. Further, the “subjects achieving >=5% weight loss at Week 16 (percent)” value in data set [2] (ITT-LOCF, placebo 10%) is given as 57%. In addition, the “predicted weight loss per week (drug-by-time interaction regression coefficient)” value in data set [2] (LOCF intent-to-treat imputation) is given as 0.29 kg/wk; in data set [2] (likelihood imputed model, versus placebo) it was > 0.3 kg; in data set [2] (model based only on complete-data subjects), 0.21 kg/wk. In addition, the “mean (SE) estimated weight loss” value in data set [2] (Week 16, ITT analysis with LOCF, n=30, placebo 1.02% (0.40%), p<0.0001) was 5.98%. The “serum creatinine after treatment” value in data set [2] (acute phase, baseline 0.79 (0.03) mg/dL, placebo 0.76 to 0.79) is on record as 0.92 (0.03) mg/dL; in data set [3] (extension phase subjects, baseline 0.78 (0.03) mg/dL, placebo 0.75 to 0.77) it was 0.92 (0.03) mg/dL. Further, the “systolic and diastolic blood pressure readings” value in data set [2] (by four months) is “did not change”. Moreover, in data set [2] (completers, Week 16, placebo 1.30% (0.49%)), the “weight loss, subjects completing the 16-week acute phase” value was 6.61%. In addition, the “increase in serum creatinine” value in data set [2] (no further increase in the extension phase, no value exceeded upper limit of normal) was “approximately 16%”. In addition, the subjects reporting fatigue in data set [2] (of 30, placebo 1, p<0.006) amounted to 10 subjects. Moreover, the “adverse effects (AEs) reported per subject, average” value in data set [2] (over the study period, placebo 1.6, p<0.125) came out at 2.1. Also, the tolerability entry in data set [2] (whole study) was “generally well tolerated”. Further, the “bone mineral density at lumbar vertebrae (L-BMD)” value in data set [3] (DXA, baseline vs Week 32) is “did not change over time”. The “total bone mineral density” value in data set [3] (DXA, baseline vs Week 32, both groups, no difference between groups, not clinically significant) is “small, but statistically significant (p<0.017) increase”. Moreover, in data set [3] (either treatment, significant reductions for some subjects), the mean lipid values result is recorded as “No clinically significant changes”. In addition, in data set [3] (for the duration of treatment in this study (approximately 8 months)), the “estimated rate of occurrence of kidney stones” value is reported as 62.5 per 1000 patient-years of exposure. In data set [3] (from 96.88 (3.01) kg, placebo 96.39 to 94.85 kg), the “absolute weight at Week 32” value is listed as 87.64 (2.95) kg. The “subjects who lost >=10% weight at Week 32” value in data set [3] (none of the placebo subjects, p<0.0004) is on record as “Ten of 19”. In addition, the heart rate entry in data set [3] (over 32 weeks) is recorded as “no significant change”. Besides, the results for the “mean weight loss at Week 32” value in data set [3] and in data set [3] (listed as Zonisamide) were 9.4% and 9.37%, respectively. In data set [4] (after 3 months of zonisamide therapy), this compound showed a total weight loss of 5.2 lb. Besides, the weight lost in data set [4] (after one month, zonisamide up to 400 mg a day, start weight 246 lb) came to 4.6 lbs. Moreover, the additional weight loss in data set [4] (in the next month, zonisamide 600 mg a day) is reported as 0.6 lb. Also, the “weight change during the second month” value in data set [4] (zonisamide 400 mg a day) is recorded as “no further weight loss”. Further, the “weight gained on restarted therapy” value in data set [5] (after 16 weeks of restarted zonisamide at doses up to 400 mg/d) was 1.2 lb. The “weight gained following discontinuation” value in data set [5] (during the 5 weeks following discontinuation of zonisamide) amounted to 7.7 lb. The compound also came in with a weight loss in data set [5] (over 32 weeks, zonisamide in a clinical trial) of 35.6 lb. The “Impact of Weight on Quality of Life (IWQOL): Health, Work, Mobility, Activities of Daily Living” value in data set [6] is given as “improved more significantly”. Besides, the “weight loss observed as an adverse effect” value in data set [7] is “a small degree of weight loss”.

Values taken from patent US7754748B2, “Method for treating obesity” (Duke University, priority 2002, dated 2010).
